# Earlier results in patent US6482908B1, “Template-directed ring-closing metathesis and ring-opening metathesis polymerization of functionalized dienes” (California Institute of Technology, priority 1997, dated 2002).
# System: cell attachment and spreading
substance,measurement,setting,value
"Gly-Arg-Gly-Asp-Tyr (GRGDY; printed: Gly-Arg-Gly-Asp-Tyr) [oligopeptide immobilized onto glass substrate, literature adhesion agent]",cell adhesion activity of immobilized peptide,immobilized onto a poorly adhesive glass substrate,extremely potent adhesion agent
same,minimum surface density necessary to induce normal cell attachment and spreading,"peptide immobilized onto poorly adhesive glass substrate, ~140 nm between peptides",10 fmol/cm^2
